The text below walks through data of EP2488529B1, “Spirocyclic derivatives as histone deacetylase inhibitors” (DAC S.r.l., priority 2009, dated 2011).

pIC50: −log10 of the molar value.

For one assay, the target named is HDAC. In words: Assay of enzyme inhibition of HDAC (BIOMOL kit, fluorescence). The conditions noted are these: nuclear fraction of Hela cells; substrate 200 µM; 15 min at RT. In kind it is biochemical. Here is the method:
The in-vitro activity of HDAC inhibitors was assayed using a BIOMOL Kit, according to the instructions from the manufacturer (Biomolecular Research Laborator). 15 µl of 30 x diluted nuclear fraction of Hela cells, was diluted to 50 µl with the assay buffer containing the HDAC inhibitor and the substrate (lysine with acetylated amino group on the side chain) at a concentration of 200 µM. The samples were incubated for 15 min at RT and then exposed to a developer (10 min at RT). In this last step a fluorophore was produced, whose fluorescence was measured using an excitation wavelength of 355 nm and an emission at 460 nm. The IC50 was calculated using GraphPad Software.

For the next assay, the system named is A549. In words: Cell growth, CellTiter-Glo Luminescent Cell Viability Assay (antiproliferative assay). The conditions noted are these: Homo sapiens; A549 cells, incubated for 72 h. In kind it is cell-based. The source says: (§1) CellTiter-Glo® Luminescent Cell Viability Assay (Promega) is a homogeneous method of determining the number of viable cells in culture based on quantitation of the present ATP, which indicates the presence of metabolically active cells. The homogeneous assay procedure involves addition of a single reagent (CellTiter-Glo® Reagent) directly to the cells, which leads to cell lysis and generation of a luminescent signal proportional to the amount of the ATP and the number of cells present in culture. The assay relies on the properties of a proprietary thermostable luciferase (Ultra-Glo® recombinant luciferase), which generates a luminescent signal. K562, A549, and HCT-116 cells, in exponential growth, were incubated for 72 h with different concentrations of the inhibitors. After 72 h, a volume of CellTiter-Glo® Reagent equal to the volume of cell culture medium was added. The content was mixed for 2 min to induce cell lysis. The luminescence was recorded after further 10 min at RT in order to obtain a stable luminescent signal.
(§2) The IC50 was calculated using GraphPad Software.
Background: ATP-based viability assays read luminescence as a measure of living cells.

The subject of another assay is HCT-116. The description is as above. In kind it is cell-based. Particulars: Homo sapiens; HCT-116 cells, incubated for 72 h; read-out: HCT116 IC50.
Source text: as §1, §2

The next assay relates to K562. The assay is described as above. In kind it is cell-based. The conditions noted are these: Homo sapiens; K562 cells, incubated for 72 h.
Source text: as §1, §2

For orientation: pIC50 means −log10 of the IC50, conventionally taken in molar units.

As to `CN1CC2(CC(=O)c3cc(/C=C/C(=O)NO)ccc3O2)C1` [Example 34, (E)-3-[1'-Methyl-4-oxo-spiro(chromane-2,3'-azetidine)-6-yl]-N-hydroxy-acrylamide], the pIC50 at HDAC was 6.00 to 7.00; in the assay with A549, at least 6.00; in the assay with HCT-116, at least 6.00; in the assay with K562, at least 6.00.

For `O=C(/C=C/c1ccc2c(c1)C(=O)CC1(CN(CCc3ccc(F)cc3)C1)O2)NO` [Example 35, (E)-3-{1'-[2-(4-Fluoro-phenyl)-ethyl]-4-oxo-spiro(chromane-2,3'-azetidine)-6-yl}-N-hydroxy-acrylamide], the negative logarithm of the IC50 (pIC50) is 6.00 to 7.00 against HDAC, 5.52 to 6.00 in the assay with A549, at least 6.00 with HCT-116 and at least 6.00 in the assay on K562.

As to `CC(=O)N1CC2(CC(=O)c3cc(/C=C/C(=O)NO)ccc3O2)C1` [Example 36, (E)-3-[1'-Acetyl-4-oxo-spiro(chromane-2,3'-azetidine)-6-yl]-N-hydroxy-acrylamide], the pIC50 against HDAC was 6.00 to 7.00; in the assay with A549, at most 5.52; in the assay on HCT-116, at most 5.52; in the assay on K562, at most 5.52.

With `O=C(/C=C/c1ccc2c(c1)C(=O)CC1(CN(C(=O)c3ccccc3)C1)O2)NO` [Example 37, (E)-3-[1'-Benzoyl-4-oxo-spiro(chromane-2,3'-azetidine)-6-yl]-N-hydroxy-acrylamide], the pIC50 at HDAC is at least 7.00; in the assay on A549, 5.52 to 6.00; in the assay with HCT-116 it was at least 6.00; in the assay on K562 it was at least 6.00.

Consider `CCOC(=O)N1CC2(CC(=O)c3cc(/C=C/C(=O)NO)ccc3O2)C1` [Example 38, (E)-3-[1'-Ethyloxycarbonyl-4-oxo-spiro(chromane-2,3'-azetidine)-6-yl]-N-hydroxy-acrylamide], for which the pIC50 is 6.00 to 7.00 against HDAC, at most 5.52 with A549, 5.52 to 6.00 with HCT-116 and 5.52 to 6.00 with K562.

With `Cn1cc(CN2CC3(CC(=O)c4cc(/C=C/C(=O)NO)ccc4O3)C2)c2ccccc21` [Example 44, (E)-3-[1'-(1-Methyl-1H-indol-3-ylmethyl)-4-oxo-spiro(chromane-2,3'-azetidine)-6-yl]-N-hydroxy-acrylamide], the pIC50 on HDAC was at least 7.00; with A549, at least 6.00; in the assay on HCT-116, at least 6.00; in the assay on K562 it was at least 6.00.

`O=C(/C=C/c1cc(F)c2c(c1)C(=O)CC1(CCN(Cc3ccccc3)CC1)O2)NO` [Example 51, (E)-3-(1'-Benzyl-8-fluoro-4-oxospiro[chroman-2,4'-piperidine]-6-yl)-N-hydroxy-acrylamide]: the pIC50 is 6.00 to 7.00 against HDAC, 5.52 to 6.00 with A549, at least 6.00 with HCT-116 and at least 6.00 in the assay on K562.

`Cc1cc(/C=C/C(=O)NO)cc2c1OC1(CCN(Cc3ccccc3)CC1)CC2=O` [Example 52, (E)-3-(1'-Benzyl-8-methyl-4-oxospiro[chroman-2,4'-piperidine]-6-yl)-N-hydroxy-acrylamide]: the pIC50 against HDAC was 6.00 to 7.00; in the assay on A549, 5.52 to 6.00; with HCT-116, at least 6.00; in the assay on K562 it was at least 6.00.

As for `CON=C1CC2(CCCN(Cc3ccc(F)cc3)C2)Oc2ccc(/C=C/C(=O)NO)cc21` (centres unmarked) [Example 53, (E)-3-(1'-(4-Fluorobenzyl)-4-(methoxyimino)spiro[chroman-2,3'-piperidine]-6-yl)-N-hydroxyacrylamide], the negative logarithm of the IC50 (pIC50) is at most 6.00 on HDAC, at most 5.52 with A549, 5.52 to 6.00 in the assay with HCT-116 and 5.52 to 6.00 in the assay with K562.

On to `O=C(/C=C/c1ccc2c(c1)C(=NO)CC1(CCCN(C3CCCC3)C1)O2)NO` (centres unmarked) [Example 54, (E)-3-(1'-Cyclopentyl-4-(hydroxyimino)spiro[chroman-2,3'-piperidine]-6-yl)-N-hydroxyacrylamide], for which the pIC50 against HDAC was at least 7.00; in the assay with A549, at least 6.00; in the assay on HCT-116, at least 6.00; in the assay on K562 it was at least 6.00.

On to `O=C(/C=C/c1ccc2c(c1)C(=NOCc1ccccc1)CC1(CCCN(CCc3ccccc3)C1)O2)NO` (centres unmarked) [Example 55, (E)-3-(4-(Benzyloxyimino)-1'-phenethylspiro[chroman-2,3'-piperidine]-6-yl)-N-hydroxyacrylamide], for which the pIC50 against HDAC is at most 6.00; in the assay with A549 it was 5.52 to 6.00; with HCT-116, at least 6.00; in the assay on K562, at least 6.00.
